{"source": "ChEMBL document CHEMBL1765075", "about": "“Discovery and structure-activity relationship of 3-aminopyrid-2-ones as potent and selective interleukin-2 inducible T-cell kinase (Itk) inhibitors” (J Med Chem, 2011)", "key": {"[1]": {"target": "Calcium/calmodulin-dependent protein kinase type IV (Homo sapiens, UniProt Q16566)", "test": "Inhibition of CAMK4"}, "[2]": {"target": "Protein kinase C beta type (Homo sapiens, UniProt P05771)", "test": "Inhibition of PKCbeta"}, "[3]": {"target": "MAP kinase-activated protein kinase 5 (Homo sapiens, UniProt Q8IW41)", "test": "Inhibition of PRAK"}, "[4]": {"target": "Tyrosine-protein kinase HCK (Homo sapiens, UniProt P08631)", "test": "Inhibition of HCK"}, "[5]": {"target": "Glycogen synthase kinase-3 beta (Homo sapiens, UniProt P49841)", "sequence (P49841 whole entry)": "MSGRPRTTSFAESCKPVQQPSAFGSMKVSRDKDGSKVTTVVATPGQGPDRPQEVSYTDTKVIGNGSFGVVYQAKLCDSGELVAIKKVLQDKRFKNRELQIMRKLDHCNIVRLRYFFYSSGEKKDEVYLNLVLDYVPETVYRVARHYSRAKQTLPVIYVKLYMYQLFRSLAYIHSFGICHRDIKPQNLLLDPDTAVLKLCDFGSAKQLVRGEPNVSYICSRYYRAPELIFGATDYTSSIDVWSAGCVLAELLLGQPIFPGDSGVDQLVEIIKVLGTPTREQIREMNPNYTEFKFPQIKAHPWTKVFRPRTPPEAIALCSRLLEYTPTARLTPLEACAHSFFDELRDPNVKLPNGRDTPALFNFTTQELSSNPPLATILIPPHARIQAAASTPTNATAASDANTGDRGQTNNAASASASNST", "test": "Inhibition of GSK3-beta"}, "[6]": {"target": "T1, Mast/stem cell growth factor receptor Kit (Homo sapiens, UniProt P10721)", "T1 sequence (P10721 whole entry)": "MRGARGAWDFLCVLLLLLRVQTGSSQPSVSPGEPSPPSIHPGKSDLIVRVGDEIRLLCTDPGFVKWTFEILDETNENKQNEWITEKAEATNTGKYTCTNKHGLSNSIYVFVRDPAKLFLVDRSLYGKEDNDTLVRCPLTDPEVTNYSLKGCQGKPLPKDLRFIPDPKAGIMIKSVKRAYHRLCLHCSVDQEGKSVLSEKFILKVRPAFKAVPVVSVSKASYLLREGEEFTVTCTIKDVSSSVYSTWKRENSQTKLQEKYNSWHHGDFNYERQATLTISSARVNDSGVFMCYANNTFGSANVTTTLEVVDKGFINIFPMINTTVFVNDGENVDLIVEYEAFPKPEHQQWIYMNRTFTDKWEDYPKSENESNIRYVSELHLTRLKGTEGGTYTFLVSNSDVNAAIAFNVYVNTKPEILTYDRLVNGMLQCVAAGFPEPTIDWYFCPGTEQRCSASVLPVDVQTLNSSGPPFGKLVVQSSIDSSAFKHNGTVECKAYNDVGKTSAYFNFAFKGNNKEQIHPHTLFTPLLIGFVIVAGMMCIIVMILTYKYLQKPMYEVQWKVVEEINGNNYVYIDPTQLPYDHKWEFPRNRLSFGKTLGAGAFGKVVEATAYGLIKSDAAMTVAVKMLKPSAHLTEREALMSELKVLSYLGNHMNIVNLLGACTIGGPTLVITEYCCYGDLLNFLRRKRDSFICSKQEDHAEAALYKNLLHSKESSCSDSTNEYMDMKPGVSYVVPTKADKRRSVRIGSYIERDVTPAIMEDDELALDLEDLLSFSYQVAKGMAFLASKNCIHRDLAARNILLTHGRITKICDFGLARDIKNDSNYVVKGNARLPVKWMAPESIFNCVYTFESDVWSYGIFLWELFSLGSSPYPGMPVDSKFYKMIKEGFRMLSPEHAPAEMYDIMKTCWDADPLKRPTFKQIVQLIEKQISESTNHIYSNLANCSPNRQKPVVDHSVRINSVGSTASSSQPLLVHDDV", "test": "Inhibition of KIT"}, "[7]": {"target": "RAC-alpha serine/threonine-protein kinase (Homo sapiens, UniProt P31749)", "test": "Inhibition of AKT1"}, "[8]": {"test": "Permeability across apical to basolateral side of human Caco2 cells after 120 mins by LC-MS/MS analysis", "type": "ADME, cell-based", "details": "Caco-2, read-out: permeability"}, "[9]": {"target": "Cyclin-dependent kinase 1 (Homo sapiens, UniProt P06493)", "test": "Inhibition of CDK1"}, "[10]": {"target": "Protein kinase C theta type (Homo sapiens, UniProt Q04759)", "sequence (Q04759 whole entry)": "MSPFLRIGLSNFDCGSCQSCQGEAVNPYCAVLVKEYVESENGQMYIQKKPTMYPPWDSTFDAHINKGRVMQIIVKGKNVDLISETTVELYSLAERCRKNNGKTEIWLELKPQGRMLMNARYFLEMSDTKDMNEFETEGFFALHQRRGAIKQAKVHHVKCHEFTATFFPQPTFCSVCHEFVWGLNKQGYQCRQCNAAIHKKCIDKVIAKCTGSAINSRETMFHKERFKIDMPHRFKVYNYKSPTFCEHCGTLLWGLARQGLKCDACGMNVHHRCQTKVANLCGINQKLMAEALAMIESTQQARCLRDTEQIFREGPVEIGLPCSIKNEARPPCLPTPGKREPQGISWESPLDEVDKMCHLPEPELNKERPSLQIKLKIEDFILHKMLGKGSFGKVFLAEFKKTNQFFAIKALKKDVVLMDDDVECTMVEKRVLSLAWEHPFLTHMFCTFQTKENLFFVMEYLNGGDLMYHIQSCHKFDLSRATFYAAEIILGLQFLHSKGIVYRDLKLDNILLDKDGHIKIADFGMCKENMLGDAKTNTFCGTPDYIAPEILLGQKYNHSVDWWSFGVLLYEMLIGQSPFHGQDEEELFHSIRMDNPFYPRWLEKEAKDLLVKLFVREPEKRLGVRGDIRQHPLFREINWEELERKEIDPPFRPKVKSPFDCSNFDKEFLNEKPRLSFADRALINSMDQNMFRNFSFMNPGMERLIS", "test": "Inhibition of PKCtheta"}, "[11]": {"target": "Tyrosine-protein kinase JAK2 (Homo sapiens, UniProt O60674)", "test": "Inhibition of JAK2"}, "[12]": {"target": "Macrophage colony-stimulating factor 1 receptor (Homo sapiens, UniProt P07333)", "test": "Inhibition of FMS"}, "[13]": {"target": "Fibroblast growth factor receptor 4 (Homo sapiens, UniProt P22455)", "sequence (P22455 whole entry)": "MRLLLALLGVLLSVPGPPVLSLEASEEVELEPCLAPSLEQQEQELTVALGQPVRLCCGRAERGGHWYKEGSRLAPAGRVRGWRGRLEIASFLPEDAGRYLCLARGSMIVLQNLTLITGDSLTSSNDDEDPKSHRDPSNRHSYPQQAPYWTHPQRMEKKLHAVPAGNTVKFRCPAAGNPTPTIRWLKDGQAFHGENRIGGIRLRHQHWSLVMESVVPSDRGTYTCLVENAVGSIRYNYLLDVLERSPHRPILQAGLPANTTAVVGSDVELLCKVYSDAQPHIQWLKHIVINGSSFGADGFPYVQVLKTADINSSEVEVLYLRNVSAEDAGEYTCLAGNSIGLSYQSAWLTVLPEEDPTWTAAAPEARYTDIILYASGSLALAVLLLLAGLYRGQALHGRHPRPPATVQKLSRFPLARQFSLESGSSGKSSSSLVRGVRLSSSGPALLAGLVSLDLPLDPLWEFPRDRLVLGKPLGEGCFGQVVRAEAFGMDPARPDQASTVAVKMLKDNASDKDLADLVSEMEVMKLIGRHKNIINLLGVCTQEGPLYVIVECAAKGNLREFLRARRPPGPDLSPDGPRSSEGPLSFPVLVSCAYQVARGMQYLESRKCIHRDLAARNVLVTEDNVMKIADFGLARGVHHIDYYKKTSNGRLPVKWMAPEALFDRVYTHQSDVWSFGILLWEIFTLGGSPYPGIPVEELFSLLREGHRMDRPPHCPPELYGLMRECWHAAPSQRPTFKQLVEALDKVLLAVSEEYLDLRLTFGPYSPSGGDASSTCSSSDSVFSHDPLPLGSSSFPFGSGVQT", "test": "Inhibition of FGFR4"}, "[14]": {"target": "Serine/threonine-protein kinase Nek1 (Homo sapiens, UniProt Q96PY6)", "test": "Inhibition of NEK1"}, "[15]": {"target": "Angiopoietin-1 receptor (Homo sapiens, UniProt Q02763)", "test": "Inhibition of TIE2"}, "[16]": {"target": "Mitogen-activated protein kinase kinase kinase 7 (Homo sapiens, UniProt O43318)", "test": "Inhibition of TAK1"}, "[17]": {"target": "Proto-oncogene tyrosine-protein kinase ROS (Homo sapiens, UniProt P08922)", "test": "Inhibition of ROS"}, "[18]": {"test": "Octanol-phosphate buffer partition coefficient, log D of the compound at pH 7.4 by HPLC analysis", "type": "physicochemical"}, "[19]": {"target": "Serine/threonine-protein kinase pim-1 (Homo sapiens, UniProt P11309)", "sequence (P11309 whole entry)": "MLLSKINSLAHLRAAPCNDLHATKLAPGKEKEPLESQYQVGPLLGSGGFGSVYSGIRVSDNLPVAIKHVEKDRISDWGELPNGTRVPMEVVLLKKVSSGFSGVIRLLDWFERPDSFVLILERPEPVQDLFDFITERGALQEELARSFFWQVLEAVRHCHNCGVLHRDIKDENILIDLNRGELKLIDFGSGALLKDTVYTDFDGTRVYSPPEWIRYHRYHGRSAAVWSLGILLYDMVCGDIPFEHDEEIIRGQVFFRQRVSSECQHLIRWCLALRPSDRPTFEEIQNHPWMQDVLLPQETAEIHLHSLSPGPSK", "test": "Inhibition of PIM1"}, "[20]": {"target": "Proto-oncogene tyrosine-protein kinase receptor Ret (Homo sapiens, UniProt P07949)", "test": "Inhibition of RET"}, "[21]": {"target": "Macrophage-stimulating protein receptor (Homo sapiens, UniProt Q04912)", "sequence (Q04912 25-304 limits assumed)": "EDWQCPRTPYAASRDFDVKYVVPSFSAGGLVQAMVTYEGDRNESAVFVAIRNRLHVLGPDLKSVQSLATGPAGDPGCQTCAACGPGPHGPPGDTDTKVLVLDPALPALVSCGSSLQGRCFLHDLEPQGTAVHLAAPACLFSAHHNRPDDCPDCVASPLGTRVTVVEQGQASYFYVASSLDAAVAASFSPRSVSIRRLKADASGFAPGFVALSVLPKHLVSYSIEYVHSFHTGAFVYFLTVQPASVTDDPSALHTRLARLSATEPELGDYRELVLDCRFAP", "sequence (Q04912 310-1400 limits assumed)": "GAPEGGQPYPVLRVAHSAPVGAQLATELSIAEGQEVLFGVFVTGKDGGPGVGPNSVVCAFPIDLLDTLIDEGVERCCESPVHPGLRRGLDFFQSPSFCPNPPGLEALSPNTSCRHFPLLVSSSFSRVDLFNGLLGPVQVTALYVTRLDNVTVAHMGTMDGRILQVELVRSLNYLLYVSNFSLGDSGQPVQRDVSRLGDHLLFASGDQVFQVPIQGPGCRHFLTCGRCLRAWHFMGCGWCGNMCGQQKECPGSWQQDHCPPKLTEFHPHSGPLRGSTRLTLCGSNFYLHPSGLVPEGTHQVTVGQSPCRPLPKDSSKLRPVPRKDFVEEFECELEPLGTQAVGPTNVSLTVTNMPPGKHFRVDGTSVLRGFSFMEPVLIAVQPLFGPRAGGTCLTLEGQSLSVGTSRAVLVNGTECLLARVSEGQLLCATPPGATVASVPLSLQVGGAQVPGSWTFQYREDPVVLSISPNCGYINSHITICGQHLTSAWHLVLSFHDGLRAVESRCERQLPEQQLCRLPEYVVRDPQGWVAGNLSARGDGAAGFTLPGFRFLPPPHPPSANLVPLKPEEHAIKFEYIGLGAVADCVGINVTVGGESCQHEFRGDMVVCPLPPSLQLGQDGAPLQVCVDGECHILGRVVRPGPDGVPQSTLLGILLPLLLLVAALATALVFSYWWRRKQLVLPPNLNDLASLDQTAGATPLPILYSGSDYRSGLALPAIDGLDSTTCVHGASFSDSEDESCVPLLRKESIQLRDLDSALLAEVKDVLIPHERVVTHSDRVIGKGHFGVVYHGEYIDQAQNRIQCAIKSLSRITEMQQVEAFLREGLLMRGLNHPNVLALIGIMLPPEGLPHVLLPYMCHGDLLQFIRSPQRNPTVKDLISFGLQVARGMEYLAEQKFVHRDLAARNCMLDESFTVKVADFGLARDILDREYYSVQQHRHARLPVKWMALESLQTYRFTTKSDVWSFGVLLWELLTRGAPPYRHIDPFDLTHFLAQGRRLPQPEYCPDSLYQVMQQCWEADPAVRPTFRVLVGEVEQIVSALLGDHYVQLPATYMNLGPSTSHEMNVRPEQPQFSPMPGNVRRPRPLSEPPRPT", "test": "Inhibition of RON"}, "[22]": {"target": "Tyrosine-protein kinase Fes/Fps (Homo sapiens, UniProt P07332)", "test": "Inhibition of FES"}, "[23]": {"target": "Ribosomal protein S6 kinase beta-1 (Homo sapiens, UniProt P23443)", "test": "Inhibition of P70S6K1"}, "[24]": {"target": "Mitogen-activated protein kinase 3 (Homo sapiens, UniProt P27361)", "test": "Inhibition of ERK1"}, "[25]": {"target": "Calcium/calmodulin-dependent protein kinase type 1D (Homo sapiens, UniProt Q8IU85)", "test": "Inhibition of CAMK1D"}, "[26]": {"target": "Serine/threonine-protein kinase Sgk1 (Homo sapiens, UniProt O00141)", "test": "Inhibition of SGK1"}, "[27]": {"target": "Serine/threonine-protein kinase Chk1 (Homo sapiens, UniProt O14757)", "test": "Inhibition of CHEK1"}, "[28]": {"target": "Ceramide kinase (Homo sapiens, UniProt Q8TCT0)", "test": "Inhibition of CERK"}, "[29]": {"target": "Dual specificity mitogen-activated protein kinase kinase 6 (Homo sapiens, UniProt P52564)", "test": "Inhibition of MKK6"}, "[30]": {"target": "Insulin receptor (Homo sapiens, UniProt P06213)", "test": "Inhibition of IR"}, "[31]": {"target": "Ribosomal protein S6 kinase alpha-1 (Homo sapiens, UniProt Q15418)", "test": "Inhibition of RSK1"}, "[32]": {"test": "Permeability across basolateral to apical side of human Caco2 cells after 120 mins by LC-MS/MS analysis", "type": "ADME, cell-based", "details": "Caco-2, read-out: permeability"}, "[33]": {"target": "Tyrosine-protein kinase ABL1 (Homo sapiens, UniProt P00519)", "test": "Inhibition of ABL"}, "[34]": {"test": "Inhibition of CK1"}, "[35]": {"target": "Dual specificity tyrosine-phosphorylation-regulated kinase 1A (Homo sapiens, UniProt Q13627)", "test": "Inhibition of DYRK1A"}, "[36]": {"test": "Solubility of the compound in phosphate buffer at pH 7.4 by high throughput shake flask assay", "type": "physicochemical"}, "[37]": {"target": "Focal adhesion kinase 1 (Homo sapiens, UniProt Q05397)", "test": "Inhibition of FAK"}, "[38]": {"target": "Dual specificity mitogen-activated protein kinase kinase 1 (Homo sapiens, UniProt Q02750)", "test": "Inhibition of MEK1"}, "[39]": {"target": "Inhibitor of nuclear factor kappa-B kinase subunit alpha (Homo sapiens, UniProt O15111)", "test": "Inhibition of IKKalpha"}, "[40]": {"target": "Mitogen-activated protein kinase 8 (Homo sapiens, UniProt P45983)", "test": "Inhibition of JNK1"}, "[41]": {"target": "Mitogen-activated protein kinase 14 (Homo sapiens, UniProt Q16539)", "sequence (Q16539 whole entry)": "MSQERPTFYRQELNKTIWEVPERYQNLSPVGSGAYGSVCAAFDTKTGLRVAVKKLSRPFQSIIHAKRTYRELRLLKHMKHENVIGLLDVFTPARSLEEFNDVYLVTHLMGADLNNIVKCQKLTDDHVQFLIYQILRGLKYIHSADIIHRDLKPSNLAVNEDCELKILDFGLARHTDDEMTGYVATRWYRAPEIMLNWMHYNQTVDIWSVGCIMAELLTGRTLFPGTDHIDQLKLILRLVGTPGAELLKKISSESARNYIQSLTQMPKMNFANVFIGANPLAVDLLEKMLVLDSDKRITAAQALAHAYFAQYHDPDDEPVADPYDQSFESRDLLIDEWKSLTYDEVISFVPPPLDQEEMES", "test": "Inhibition of P38alpha"}, "[42]": {"target": "RAF proto-oncogene serine/threonine-protein kinase (Homo sapiens, UniProt P04049)", "test": "Inhibition of C-RAF"}, "[43]": {"target": "Ephrin type-B receptor 2 (Homo sapiens, UniProt P29323)", "test": "Inhibition of EPHB2"}, "[44]": {"test": "Inhibition of AMPK"}, "[45]": {"test": "Inhibition of RLK"}, "[46]": {"target": "Mitogen-activated protein kinase 11 (Homo sapiens, UniProt Q15759)", "test": "Inhibition of P38beta"}, "[47]": {"target": "T1, Mast/stem cell growth factor receptor Kit", "test": "Inhibition of c-Kit after 45 mins by radiometric phosphate incorporation assay"}, "[48]": {"target": "Insulin-like growth factor 1 receptor (Homo sapiens, UniProt P08069)", "test": "Inhibition of IGF1R"}, "[49]": {"target": "Serine/threonine-protein kinase 3 (Homo sapiens, UniProt Q13188)", "test": "Inhibition of MST2"}}}
{"smiles": "CNc1cncc(-c2c[nH]c(=O)c(NC(=O)c3ccc(N4CCC[C@H]4CN4CCCC4)cc3)c2)n1", "values": [{"measurement": "Ki", "setting": "[1]", "value": "> 1000", "unit": "nM"}, {"measurement": "Ki", "setting": "[2]", "value": "> 1000", "unit": "nM"}, {"measurement": "Ki", "setting": "[3]", "value": "> 1000", "unit": "nM"}, {"measurement": "Ki", "setting": "[4]", "value": "> 1000", "unit": "nM"}, {"measurement": "Ki", "setting": "[5]", "value": "> 1000", "unit": "nM"}, {"measurement": "Ki", "setting": "[6]", "value": 200, "unit": "nM"}, {"measurement": "Ki", "setting": "[7]", "value": "> 1000", "unit": "nM"}, {"measurement": "Papp A→B at 2 h", "setting": "[8]", "value": 10.8, "unit": "×10⁻⁶ cm/s"}, {"measurement": "Ki", "setting": "[9]", "value": "> 1000", "unit": "nM"}, {"measurement": "Ki", "setting": "[10]", "value": "> 2000", "unit": "nM"}, {"measurement": "Ki", "setting": "[11]", "value": 370, "unit": "nM"}, {"measurement": "Ki", "setting": "[12]", "value": "> 1000", "unit": "nM"}, {"measurement": "Ki", "setting": "[13]", "value": "> 1000", "unit": "nM"}, {"measurement": "Ki", "setting": "[14]", "value": "> 1000", "unit": "nM"}, {"measurement": "Ki", "setting": "[15]", "value": "> 1000", "unit": "nM"}, {"measurement": "Ki", "setting": "[16]", "value": 860, "unit": "nM"}, {"measurement": "Ki", "setting": "[17]", "value": "> 1000", "unit": "nM"}, {"measurement": "logD", "setting": "[18]", "value": 2.8}, {"measurement": "Ki", "setting": "[19]", "value": "> 1000", "unit": "nM"}, {"measurement": "Ki", "setting": "[20]", "value": "> 1000", "unit": "nM"}, {"measurement": "Ki", "setting": "[21]", "value": "> 1000", "unit": "nM"}, {"measurement": "Ki", "setting": "[22]", "value": "> 1000", "unit": "nM"}, {"measurement": "Ki", "setting": "[23]", "value": "> 1000", "unit": "nM"}, {"measurement": "Ki", "setting": "[24]", "value": "> 2000", "unit": "nM"}, {"measurement": "Ki", "setting": "[25]", "value": "> 1000", "unit": "nM"}, {"measurement": "Ki", "setting": "[26]", "value": "> 1000", "unit": "nM"}, {"measurement": "Ki", "setting": "[27]", "value": "> 1000", "unit": "nM"}, {"measurement": "Ki", "setting": "[28]", "value": "> 1000", "unit": "nM"}, {"measurement": "Ki", "setting": "[29]", "value": "> 1000", "unit": "nM"}, {"measurement": "Ki", "setting": "[30]", "value": "> 1000", "unit": "nM"}, {"measurement": "Ki", "setting": "[31]", "value": "> 1000", "unit": "nM"}, {"measurement": "Papp B→A at 2 h", "setting": "[32]", "value": 32.4, "unit": "×10⁻⁶ cm/s"}, {"measurement": "Ki", "setting": "[33]", "value": "> 1000", "unit": "nM"}, {"measurement": "Ki", "setting": "[34]", "value": "> 1000", "unit": "nM"}, {"measurement": "Ki", "setting": "[35]", "value": "> 1000", "unit": "nM"}, {"measurement": "solubility thermodynamic", "setting": "[36]", "value": 150, "unit": "µg/mL"}, {"measurement": "Ki", "setting": "[37]", "value": "> 1000", "unit": "nM"}, {"measurement": "Ki", "setting": "[38]", "value": "> 1000", "unit": "nM"}, {"measurement": "Ki", "setting": "[39]", "value": "> 1000", "unit": "nM"}, {"measurement": "Ki", "setting": "[40]", "value": "> 1000", "unit": "nM"}, {"measurement": "Ki", "setting": "[41]", "value": "> 1000", "unit": "nM"}, {"measurement": "Ki", "setting": "[42]", "value": "> 2000", "unit": "nM"}, {"measurement": "Ki", "setting": "[43]", "value": "> 1000", "unit": "nM"}, {"measurement": "Ki", "setting": "[44]", "value": "> 1000", "unit": "nM"}, {"measurement": "Ki", "setting": "[45]", "value": "> 2000", "unit": "nM"}, {"measurement": "Ki", "setting": "[46]", "value": "> 1000", "unit": "nM"}, {"measurement": "Ki", "setting": "[47]", "value": 200, "unit": "nM"}, {"measurement": "Ki", "setting": "[48]", "value": "> 1000", "unit": "nM"}, {"measurement": "Ki", "setting": "[49]", "value": "> 1000", "unit": "nM"}]}
